Test results published in patent US11819540B2, “Methods for treating and preventing neutrophil-derived net toxicity and thrombosis” (CHILDREN'S MEDICAL CENTER CORPORATION, priority 2011, dated 2023).

Experiments:
[1] = system: platelets; assay: Platelet aggregation (light transmission) with histones; type: cell-based, human; conditions: EDTA 5 mM; heparin
Source text: (§1) For FIGS. 2A and 2B data are presented as mean±SEM, n=3; (Student's t test; *P<0.05; **P<0.01). […] A second band (arrowhead) may represent cross reactivity of the antibody or a proteolytic product. Data presented are representative of three independent experiments. FIG. 2D is a graph of the degree of aggregation of platelets treated with thrombin (open circles), human recombinant histone H3 (solid circles), EDTA (solid squares), and heparin (solid triangles). […] FIG. 2E is a graph of the degree of aggregation of platelets 3 minutes after addition of various histones or throbmin (Thr). […] (ANOVA; ***P<0.001 compared with histone H1).
The possibility of a direct interaction between platelets and histones was examined. […] Thrombin (0.5 U/mL; open circles in FIG. 2D) and […] served as a positive control in these experiments. Aggregation in response to histone H3 (FIG. 2D) and H4 (data not shown) was inhibited by EDTA (5 mM; solid squares in FIG. 2D) which excluded platelet agglutination caused by the positive charge of histones. […] Dissociating NETs and inhibiting histones could add to the antithrombotic effects of heparin.

[2] = system: NETs; assay: Incubation of NETs under static conditions, immunodetection of released histone H2B; type: cell-based, human
Source text: as §1
The effect of heparin was also observed in medium, indicating a direct interaction of heparin with the NETs. Heparin has high affinity for histones (Pal et al., Thromb Res 1983 31:69-79) and releases histones from chromatin (Napirei et al. FEBS J 2009 276:1059-1073).

[3] = system: blood clots (fibrin and NET scaffold); assay: Clot formation in recalcified blood with or without PAF-activated neutrophils (thrombolysis); type: cell-based, human; conditions: tPA 25 μg/mL, DNase 100 U/mL
Experimental: Fibrin polymerization was induced in blood by recalcification and incubated either in the absence (medium) or presence of neutrophils preactivated by PAF to induce NET formation (neutrophils+PAF). Samples were treated with DNase to digest extracellular traps or tPA for fibrin digestion. […] (Scale bar, 1 cm.) The graph presents quantification of the clots by weighing. […] Data are presented as mean±SEM, n=4; (ANOVA; ***P<0.001). The first bar in each x-axis category represents the untreated samples, the second bar represents the samples treated with DNase, the third bar represents the samples treated with tPA, and the fourth bar represents the samples treated with tPA and DNase.
The relative susceptibility of NETs and fibrin to serve as scaffolds for blood clots to thrombolysis was examined (FIG. 20). Neutrophils were prestimulated with platelet-activating factor to release NETs with recalcified blood under stirring conditions. Two-hundred-fifty microliters of 5×10^6 neutrophils per milliliter in RPMI medium were activated by platelet activating factor (50 μM Calbiochem) at 37° C. under static conditions to induce NET formation. Control samples were 250 μL medium alone, 250 μL of unstimulated neutrophils, or 250 μL of 50 μM PAF in medium. After 10 min, 250 μL of recalcified (40 mM CaCl2) ACD anticoagulated blood was added. […] Images were acquired and the clot was determined. […]

[4] = system: collagen; assay: Perfusion of blood over collagen-coated flow chamber; type: cell-based; conditions: blood supplemented with DNase
Experimental: (§2) NETs were induced on glass coverslips and perfusion was performed using a parallel-plate flow chamber system (Glycotech). NETs were perfused with platelets suspended in plasma at a shear rate of 200/s or 900/s and 37° C. using a peristaltic pump and observed to be avidly adhering platelets. NETs were washed and fixed with 2.5% glutaraldehyde and electron microscopy was performed. […] NETs were also perfused with ACD-anticoagulated blood supplemented with the irreversible thrombin inhibitor PPACK-Dihydrochloride (100 μM; Calbiochem) and recalcified by addition of 2 mM CaCl2. […] Cells firmly attached to collagen or NETs were lysed with 100 μL of 0.5% Triton×100 in water. Hemoglobin content was measured using the method of Drabkin (Drabkin PNAS 1971 68:609-13). To quantify platelets, Rhodamine-6G fluorescence of the sample was analyzed using a fluorometer.
When NETs were washed after perfusion with blood and observed macroscopically a red thrombus was detectable (FIG. 3A). Shown in FIG. 3A is a flow chamber coated with NETs after perfusion with blood. Light microscopy of a red thrombus (arrow) anchored on two strings (arrowheads). FIG. 3A is a composite of multiple photographs of the flow chamber. (Scale bar, 500 μm). […] RBC adhesion to NETs was prevented when blood was supplemented with DNase, confirming that RBCs were attached to NETs. […]

[5] = system: NETs; assay: Perfusion of blood over NETs in a flow chamber; type: cell-based, human
Experimental: The interaction between NETs and blood was studied using NETs isolated from human neutrophils. Blood samples were obtained from healthy donors who had not taken any medication for at least 10 day. Platelets and neutrophils were prepared from ACD-blood (Brill A, et al. Cardiovasc Res 2009 84(1):137-144) or EDTA-blood (Fuchs et al., J Cell Biol 2007 176:231-241), respectively. Neutrophils were seeded into flow chambers (μ-Slide IV, IBIDI) at 0.5 to 1×10^7 cells/mL. NET formation by the majority of cells was induced by phorbol 12-myristate 13-acetate (PMA, 50 nM, 4 h; Sigma Aldrich) or glucose oxidase (GO, 1 U/mL, 4 h; Worthington Biochem), as previously described (Brill A, et al. Cardiovasc Res 2009 84(1):137-144). PMA-induced NETs were used for initial observations. Other experiments were done with GO-induced NETs. NETs were washed and blocked with 1% BSA (Calbiochem). NET-DNA was stained with 1 μg/mL Hoechst 33258 (Invitrogen) for 15 min at 37° C. or SytoxGreen (1 μM, Invitrogen). Washed platelets were loaded with fluorescent Calcein-AM (2.5 μg/mL, 10 min, 37° C.; Invitrogen) or platelets in whole blood were labeled with Rhodamine 6G (5 μg/mL, 10 min, 37° C.; Sigma). Fluorescent images were acquired by a Zeiss Axiovert 200 inverted fluorescence microscope in conjunction with a monochrome camera (AxioCam MRm). Colors for fluorescence channels were assigned using Axiovision software. Fluorescent areas in images were quantified using ImageJ software.
as §2
Strings of NETs aligned in the direction of flow and, importantly, NETs were not a static surface but moved in three dimensions. Within 1 min from onset of perfusion, small platelet aggregates appeared on NETs. Platelet adhesion and aggregation on NETs increased over the next 9 min. […] Both platelet aggregates and NETs were removed by DNase and 10 minutes after the beginning of perfusion (FIGS. 1C and 1D). […] Thus, NETs were the only prothrombotic substrate in these experiments. FIGS. 1C and 1D show data that are representative of at least three independent experiments and are shown as mean±SEM, n=3. AU means arbitrary units.

[6] = system: NETs; assay: Binding of plasma VWF, fibronectin and fibrinogen to NETs; type: cell-based, human; conditions: DNaseI 100 U/mL, 10 min after plasma incubation
Experimental: FIGS. 19A-19C depict graphs of the binding of von Willebrand factor (VWF), fibronectin, and fibrinogen to neutrophil extracellular traps (NETs). Human NETs were incubated with human plasma for 30 min, washed, and stained for VWF (19A), fibronectin (19B), or fibrinogen (19C). […] Data are presented as mean±SEM, n=3; (Student's t test); **P<0.01; ***P<0.001.
Whether NETs can concentrate plasma proteins that promote and stabilize thrombi (Frenette and Wagener NEJM 1996 335:43-5) was determined. […] After the activation, NETs were incubated with 1% BSA for 1 h at 37° C. NETs were washed and incubated with 50% plasma in PBS for 30 min at 37° C. Next, NETs were washed and treated with DNaseI (100 U/mL, 10 min). After another wash, cells were fixed with paraformaldehyde (2%, 1 h at 37° C.) and unspecific binding sites were blocked with BSA (3%, 1 h at 37° C.). Primary antibodies were used at 1 μg/mL in PBS supplemented with 1% BSA and 0.1% Triton×100 [mouse-antifibrinogen, rabbit-antifibronectin (both Sigma); rabbit-anti-VWF, (Chemicon)]. After incubation at 37° C. for 1 h, samples were washed with PBS and fluorescently conjugated secondary antibodies (Invitrogen) were applied at 10 μg/mL for 30 min at 37° C. […] The interaction of fibrinogen with NETs and its ability to promote fibrin deposition was determined. […]

[7] = blood supplemented with DNase at the beginning of the perfusion

Compound | platelet aggregation in response to histone H3 and H4 in presence of inhibitor [1] | release of histones (H2B) from NETs [2] | clot formation ([3]; absence of activated neutrophils (medium)) | clot formation / clot size ([3]; presence of PAF-activated neutrophils) | platelet adhesion to collagen-coated chambers [4] | NETs and adherent platelets after DNase addition ([5]; DNase 100 U/mL added 10 min after beginning of perfusion) | RBC adhesion to NETs ([5]; blood supplemented with DNase) | platelet adhesion to NETs ([5]; blood supplemented with DNase) | NETs (NET-DNA area) [5, 7] | platelet aggregates on NETs [5, 7] | binding of VWF, fibronectin and fibrinogen to NETs [6] | platelet aggregates on NETs ([5]; heparin 10 μg/mL) | NETs (NET-DNA) ([5]; heparin 100 μg/mL, perfusion with heparinized blood, 10 min)
O=C(O)CN(CCN(CC(=O)O)CC(=O)O)CC(=O)O [EDTA, ethylenediaminetetraacetic acid] | inhibited |  |  |  |  |  |  |  |  |  |  |  | 
DNase |  | released histones to the culture supernatant | had no effect | did not change | had no effect | simultaneously removed NETs and platelets | prevented | prevented platelet adhesion to NETs | NETs were degraded rapidly | platelet aggregates did not form | binding to NETs in a DNase-sensitive manner |  | 
Heparin [reference compound] | completely abolished platelet response to these histones | released histones to the culture supernatant |  |  |  |  |  |  |  |  |  | removed platelet aggregates from NETs | almost completely dismantled NETs
